Test results from patent publication US20230346735A1, “Nutritional Composition Comprising Carnitine and Method for Treating or Preventing an Infection in a Mammal” (priority 2020, published 2023).
Marks after values point to notes of the source that are not given here.

How the values were obtained:
[1] = system: Furin; experiment: Furin protein and mRNA in rat tissue samples; type: in vivo; conditions: exercised rats
Source text: (§1) After a week of the adaptation period, the rats were divided into eight equal groups containing seven rats each. The initial body weights of the rats were similar in all the groups (214.53 grams ± 4.67; P > 0.05).
(§2) Groups 1 and 2 were not subjected to an exercise routine. Groups 3-8 were subjected to an exercise regimen consisting of a week training period with an incremental exercise capacity described below. After the week training period the exercise regimen followed was each rat in Groups 3-8 were subjected to 6 weeks of running at 25 m/min during 45 min […]. […] These correspond to 0, 250, 500, 1000, 2000 and 4000 mg per day for humans, respectively.
(§3) To determine the protein accumulation in the liver, muscle and lung samples, a Western Blotting test was used. Each of the tissue samples of the same group were pooled, homogenized, and sonicated in lysis buffer supplemented with 1X protease and phosphatase inhibitor cocktail (#5872, Cell Signaling). Total protein content was detected with Qubit 2.0 Fluorometer according to the manufacturer’s protocol (Invitrogen, Life Technologies Corporation, Carlsbad, CA, USA). […] Protein levels were analyzed densitometrically using an image analysis system (Image J; National Institute of Health, Bethesda, MD, USA), corrected with values determined on β-actin blots and expressed as relative values compared with the control group. […]

[2] = system: TMPRSS2; experiment: TMPRSS2 protein and mRNA in rat tissue samples; type: in vivo; conditions: exercised rats
Source text: as §1, §2, §3

[3] = system: superoxide dismutase; experiment: Antioxidant capacity: superoxide dismutase in exercised rats; type: in vivo, rat; conditions: 6 weeks
Procedure: Fifty-six (56) Male Wistar rats that were 8-week old were obtained. The rats were reared at the temperature of 22 ± 2° C., the humidity of 55 ± 5%, and with a 12-hrs light-12-hrs dark cycle. All procedures involving rats were conducted in strict compliance with the relevant laws, the Animal Welfare Act, Public Health Services Policy, and guidelines established by the Institutional Animal Care and Use Committee of the Institute of the contracted University which completed the study.
as §1, §2
The exercised rats were subjected to treadmill exercise on a motorized rodent treadmill (Commat Limited, Ankara, Turkey). The treadmill contained a stimulus grid at the back end of the treadmill giving an electric shock when the animal placed its paw on the grid. […] To eliminate the diurnal variations, all exercise tests were applied during the same time of the day. The week of training period was provided as pre-training practice for the animals to get familiar with the treadmill equipment and handling. In doing so, the rats in the exercise training groups were accustomed by treadmill exercise over 5 days such that: (i) 1st day, 10 m/min for 10 min, (ii) 2nd day, 20 m/min for 10 min, (iii) 3rd day, 25 m/min for 10 min, (iv) 4th day, 25 m/min for 20 min and (v) 5th day, 25 m/min for 30 min. After the training period, the rats in treadmill exercise groups ran on the treadmill 25 m/min for 45 min/ per day and five days per week for 6 weeks according to the protocol described by Sahin et al. Capsaicinoids Improve the Consequences of Physical Activity. Toxicol Rep. 2018;5:598-607, which is hereby incorporated by reference.
The exercise regimen was used to induce an inflammation and oxidative stress conditions. […] The results of malondialdehyde, superoxide dismutase, catalase, and glutathione peroxidase for each rat group are shown in TABLE 2.

[4] = system: ACE-1; experiment: ACE-1 mRNA expression in Calu-3, RT real-time PCR; type: cell-based, human; conditions: Calu-3, 50 to 1,000 uM, 24 hr pre-treatment
[5] = tissues, versus exercise control

C[N+](C)(C)C[C@H](O)CC(=O)[O-] [L-carnitine]
Furin mRNA levels [1, 5]: dose-dependent decrease
Furin protein level ([1]; western blotting): return to the baseline control
TMPRSS2 mRNA levels [2, 5]: dose-dependent decrease
TMPRSS2 protein level ([2]; western blotting): return to the baseline control
SOD ([3]; Car200: 200 mg/kg oral gavage, no exercise): 95.87±2.47^cd U/mg protein
SOD ([3]; Ex+Car25: exercise, 25 mg/kg oral gavage): 96.49±0.78^cd U/mg protein
SOD ([3]; Ex+Car50: exercise, 50 mg/kg oral gavage): 102.89±2.69^bc U/mg protein
SOD ([3]; Ex+Car100: exercise, 100 mg/kg oral gavage): 109.68±2.49^ab U/mg protein
SOD ([3]; Ex+Car200: exercise, 200 mg/kg oral gavage): 114.56±2.70^a U/mg protein
SOD ([3]; Ex+Car400: exercise, 400 mg/kg oral gavage): 120.16±3.58^a U/mg protein
ACE-1 mRNA levels [4]: didn’t not change
